Converted amounts (≈) assume the structure as drawn.
Tested on: Campylobacter pylori 8005
Assay: in vitro antimicrobial activity, agar plate dilution method (MIC)
Format: cell-based
Settings: Helicobacter pylori, 48 h, Brucella Agar containing 5% horse lysed blood, 37° C., 10% carbon dioxide gas, 2 days, inoculum 10^7 cells/ml, read-out: minimal inhibitory concentration (MIC)

MIC: 0.39 µg/mL (≈ 1.13 µM)
Compound: COc1ccc2[nH]c([S+]([O-])Cc3ncc(C)c(OC)c3C)nc2c1 (stereo not shown) [omeprazole, 5-methoxy-2-[[(4-methoxy-3,5-dimethyl-2-pyridinyl)methyl]-sulfinyl]-1H-benzimidazole]

Reference: US5093342A, “Use of omeprazole as an antimicrobial agent” (priority 1989, dated 1992)
